Among the data in patent publication US20200016136A1 (VIIV HEALTHCARE UK (NO. 5) LIMITED, priority 2017, published 2020) are EC50 values, retold here.

By EC50 is commonly meant the concentration at which the effect is half-maximal.

For the assay, the system named is NL-RLuc virus (recombinant NL4-3 HIV with Renilla Luciferase gene). Description: Inhibition of HIV replication (NL-RLuc virus in MT-2 cells, luciferase readout). In kind it is cell-based, Human immunodeficiency virus (HIV). The conditions noted are these: MT2, 120 h. The source says:
Inhibition of HIV Replication:
A recombinant NL-RLuc proviral clone was constructed in which a section of the nef gene form NL4-3 was replaced with the Renilla Luciferase gene. This virus is fully infectious and can undergo multiple cycles of replication in cell culture. In addition, the luciferous reporter provides a simple and easy method for quantitating the extent of virus growth and consequently, the antiviral activity of test compounds. The plasmid pNLRLuc contains the proviral NL-Rluc DNA cloned into pUC18 at the PvuII site. The NL-RLuc virus was prepared by transfection of 293T cells with the plasmid pNLRLuc. Transfections were performed using the LipofectAMINE PLUS kit form Invitrogen (Carlsbad, Calif.) according to the manufacturer and the virus generated was titered in MT-2 cells. For susceptibility analyses, the titrated virus was used to infect MT-2 cells in the presence of compound, and after 5 days of incubation, cells were processed and quantitated for virus growth by the amount of expressed luciferase. Assay media was RPMI 1640 supplemented with 10% heat inactivated fetal bovine serum (FBS), 100 units/ml penicillin G/100 units/ml streptomycin, 10 mM HEPES buffer pH 7.55 and 2 mM L-glutamine. The results form at least 2 experiments were used to calculate the EC50 values. Luciferase was quantitated using the Dual Luciferase kit form Promega (Madison, Wis.). Susceptibility of viruses to compounds was determined by incubation in the presence of serial dilutions of the compound. The 50% effective concentration (EC50) was calculated by using the exponential form of the median effect equation where (Fa)=1/[1+(ED50/drug conc.)^m](Johnson V A, Byington R T. Infectivity Assay. In Techniques in HIV Research. ed. Aldovini A, Walker B D. 71-76. New York: Stockton Press. 1990).
Turning to `Cc1cccc(Cl)c1CN1CCc2cc(-c3c(CN(C)CC4CCOCC4)nc(Cl)c([C@H](OC(C)(C)C)C(=O)O)c3N3CCC(C)(C)CC3)ccc2C1` [Example 98, (S)-2-(tert-Butoxy)-2-(2-chloro-5-(2-(2-chloro-6-methylbenzyl)-1,2,3,4-tetrahydroisoquinolin-6-yl)-4-(4,4-dimethylpiperidin-1-yl)-6-((methyl((tetrahydro-2H-pyran-4-yl)methyl)amino)methyl)pyridin-3-yl)acetic Acid], the EC50 turned out to be 0.7 nM. Turning to `CC1(C)CCN(c2c(-c3ccc4c(c3)CCN(c3ncnc5c3oc3ncccc35)C4)c(CO)nc(Cl)c2[C@H](OC(C)(C)C)C(=O)O)CC1` [Example 115, (S)-2-(tert-Butoxy)-2-(2-chloro-4-(4,4-dimethylpiperidin-1-yl)-6-(hydroxymethyl)-5-(2-(pyrido[3′,2′:4,5]furo[3,2-d]pyrimidin-4-yl)-1,2,3,4-tetrahydroisoquinolin-6-yl)pyridin-3-yl)acetic Acid], the EC50 stood at 1 nM. As for `COc1ccccc1-c1cc(N2CCc3cc(-c4c(C)nc(C)c([C@H](OC(C)(C)C)C(=O)O)c4N4CCC(C)(C)CC4)ccc3C2)ncn1` [Example 123, (S)-2-(tert-Butoxy)-2-(4-(4,4-dimethylpiperidin-1-yl)-5-(2-(6-(2-methoxyphenyl)pyrimidin-4-yl)-1,2,3,4-tetrahydroisoquinolin-6-yl)-2,6-dimethylpyridin-3-yl)acetic Acid], the figure is 11 nM.

Take `Cc1nc(C)c([C@H](OC(C)(C)C)C(=O)O)c(N2CCC(C)(C)CC2)c1-c1ccc2c(c1)CCN(c1ccc(C(F)(F)F)cn1)C2` [Example 143, (S)-2-(tert-butoxy)-2-(4-(4,4-dimethylpiperidin-1-yl)-2,6-dimethyl-5-(2-(5-(trifluoromethyl)pyridin-2-yl)-1,2,3,4-tetrahydroisoquinolin-6-yl)pyridin-3-yl)acetic Acid]: the EC50 stood at 14 nM. As for `Cc1nc(C)c([C@H](OC(C)(C)C)C(=O)O)c(N2CCC(C)(C)CC2)c1-c1ccc2c(c1)CCN(c1cc(C(=O)O)ncn1)C2` [Example 127, (S)-6-(6-(5-(tert-Butoxy(carboxy)methyl)-4-(4,4-dimethylpiperidin-1-yl)-2,6-dimethylpyridin-3-yl)-3,4-dihydroisoquinolin-2(1H)-yl)pyrimidine-4-carboxylic Acid], the figure is 1280 nM; as for `Cc1nc(CN2CCC3(CCC3)CC2)c(-c2ccc3c(c2)CCN(c2nccc(-c4cnccn4)n2)C3)c(N2CCC(C)(C)CC2)c1[C@H](OC(C)(C)C)C(=O)O` [Example 166, (S)-2-(6-(7-Azaspiro[3.5]nonan-7-ylmethyl)-4-(4,4-dimethylpiperidin-1-yl)-2-methyl-5-(2-(4-(pyrazin-2-yl)pyrimidin-2-yl)-1,2,3,4-tetrahydroisoquinolin-6-yl)pyridin-3-yl)-2-(tert-butoxy)acetic Acid], 0.6 nM; as for `CC1(C)CCN(Cc2nc(Cl)c([C@H](OC(C)(C)C)C(=O)O)c(N3CCC(C)(C)CC3)c2-c2ccc3c(c2)CCN(c2ncnc4c2oc2ncccc24)C3)CC1` [Example 114, (S)-2-(tert-Butoxy)-2-(2-chloro-4-(4,4-dimethylpiperidin-1-yl)-6-((4,4-dimethylpiperidin-1-yl)methyl)-5-(2-(pyrido[3′,2′:4,5]furo[3,2-d]pyrimidin-4-yl)-1,2,3,4-tetrahydroisoquinolin-6-yl)pyridin-3-yl)acetic Acid], 0.1 nM. As for `Cc1nc(C)c([C@H](OC(C)(C)C)C(=O)O)c(N2CCC(C)(C)CC2)c1-c1ccc2c(c1)CCN(c1cccc(F)n1)C2` [Example 94, (S)-2-(tert-Butoxy)-2-(4-(4,4-dimethylpiperidin-1-yl)-5-(2-(6-fluoropyridin-2-yl)-1,2,3,4-tetrahydroisoquinolin-6-yl)-2,6-dimethylpyridin-3-yl)acetic Acid], the figure is 4 nM; as for `Cc1cccc(Cl)c1CN1CCc2cc(-c3c(NCCn4cccn4)nc(C)c([C@H](OC(C)(C)C)C(=O)O)c3N3CCC(C)(C)CC3)ccc2C1` [Example 7, (S)-2-(6-((2-(1H-Pyrazol-1-yl)ethyl)amino)-5-(2-(2-chloro-6-methylbenzyl)-1,2,3,4-tetrahydroisoquinolin-6-yl)-4-(4,4-dimethylpiperidin-1-yl)-2-methylpyridin-3-yl)-2-(tert-butoxy)acetic Acid], 13 nM; as for `Cc1nc(C)c([C@H](OC(C)(C)C)C(=O)O)c(N2CCC(C)(C)CC2)c1-c1ccc2c(c1)CCN(c1nccc(-c3cnccn3)n1)C2` [Example 108, (S)-2-(tert-Butoxy)-2-(4-(4,4-dimethylpiperidin-1-yl)-2,6-dimethyl-5-(2-(4-(pyrazin-2-yl)pyrimidin-2-yl)-1,2,3,4-tetrahydroisoquinolin-6-yl)pyridin-3-yl)acetic Acid], 2 nM.

Take `Cc1cccc(Cl)c1CN1CCc2cc(-c3cnc(Cl)c([C@H](OC(C)(C)C)C(=O)O)c3N3CCC(C)(C)CC3)ccc2C1` [Example 102, (S)-2-(tert-Butoxy)-2-(2-chloro-5-(2-(2-chloro-6-methylbenzyl)-1,2,3,4-tetrahydroisoquinolin-6-yl)-4-(4,4-dimethylpiperidin-1-yl)pyridin-3-yl)acetic Acid]: the EC50 was found to be 8 nM. Regarding `CC1(C)CCN(c2c(-c3ccc4c(c3)CCN(c3nccc(-c5cnccn5)n3)C4)c(N)nc(Cl)c2[C@H](OC(C)(C)C)C(=O)O)CC1` [Example 163, (S)-2-(6-Amino-2-chloro-4-(4,4-dimethylpiperidin-1-yl)-5-(2-(4-(pyrazin-2-yl)pyrimidin-2-yl)-1,2,3,4-tetrahydroisoquinolin-6-yl)pyridin-3-yl)-2-(tert-butoxy)acetic Acid], the EC50 was determined as 3 nM.

Consider `Cc1nc(C)c([C@H](OC(C)(C)C)C(=O)O)c(N2CCC(C)(C)CC2)c1-c1ccc2c(c1)CCN(c1nccc(N3CCN(C)CC3)n1)C2` [Example 40, (2S)-2-(tert-Butoxy)-2-[4-(4,4-dimethylpiperidin-1-yl)-2,6-dimethyl-5-{2-[4-(4-methylpiperazin-1-yl)pyrimidin-2-yl]-1,2,3,4-tetrahydroisoquinolin-6-yl}pyridin-3-yl]acetic Acid], for which the EC50 was determined as 4 nM. On to `Cc1nc(CN2CCC3(CCC3)CC2)c(-c2ccc3c(c2)CCN(c2ncnc4c2oc2ccccc24)C3)c(N2CCC(C)(C)CC2)c1[C@H](OC(C)(C)C)C(=O)O` [Example 159, (S)-2-(6-(7-Azaspiro[3.5]nonan-7-ylmethyl)-5-(2-(benzofuro[3,2-d]pyrimidin-4-yl)-1,2,3,4-tetrahydroisoquinolin-6-yl)-4-(4,4-dimethylpiperidin-1-yl)-2-methylpyridin-3-yl)-2-(tert-butoxy)acetic Acid], for which the EC50 was determined as 1 nM. On to `Cc1nc(C)c([C@H](OC(C)(C)C)C(=O)O)c(N2CCC(C)(C)CC2)c1-c1ccc2c(c1)CCN(c1cc(N3CCC(CO)CC3)ncn1)C2` [Example 120, (S)-2-(tert-Butoxy)-2-(4-(4,4-dimethylpiperidin-1-yl)-5-(2-(6-(4-(hydroxymethyl)piperidin-1-yl)pyrimidin-4-yl)-1,2,3,4-tetrahydroisoquinolin-6-yl)-2,6-dimethylpyridin-3-yl)acetic Acid], for which the EC50 stood at 14 nM. As for `Cc1nc(C)c([C@H](OC(C)(C)C)C(=O)O)c(N2CCC(C)(C)CC2)c1-c1ccc2c(c1)CCN(c1nccc(N3C4CCC3CN(C)C4)n1)C2` [Example 43, (2S)-2-(tert-Butoxy)-2-[4-(4,4-dimethylpiperidin-1-yl)-2,6-dimethyl-5-[2-(4-{3-methyl-3,8-diazabicyclo[3.2.1]octan-8-yl}pyrimidin-2-yl)-1,2,3,4-tetrahydroisoquinolin-6-yl]pyridin-3-yl]acetic Acid], the figure is 3 nM. On to `Cc1nc(C)c([C@H](OC(C)(C)C)C(=O)O)c(N2CCC(C)(C)CC2)c1-c1ccc2c(c1)CCN(c1ccnc(N3CCC(CCO)CC3)n1)C2` [Example 144, (S)-2-(tert-Butoxy)-2-(4-(4,4-dimethylpiperidin-1-yl)-5-(2-(2-(4-(2-hydroxyethyl)piperidin-1-yl)pyrimidin-4-yl)-1,2,3,4-tetrahydroisoquinolin-6-yl)-2,6-dimethylpyridin-3-yl)acetic Acid], for which the EC50 was 3 nM. As for `COc1cccc(-c2cc(N3CCc4cc(-c5c(C)nc(C)c([C@H](OC(C)(C)C)C(=O)O)c5N5CCC(C)(C)CC5)ccc4C3)ncn2)c1` [Example 79, (S)-2-(tert-Butoxy)-2-(4-(4,4-dimethylpiperidin-1-yl)-5-(2-(6-(3-methoxyphenyl)pyrimidin-4-yl)-1,2,3,4-tetrahydroisoquinolin-6-yl)-2,6-dimethylpyridin-3-yl)acetic Acid], the figure is 11 nM; as for `Cc1cc(F)ccc1CN1CCc2cc(-c3cnc(C)c([C@H](OC(C)(C)C)C(=O)O)c3N3CCC(C)(C)CC3)ccc2C1` [Example 51, (2S)-2-(tert-Butoxy)-2-[4-(4,4-dimethylpiperidin-1-yl)-5-{2-[(4-fluoro-2-methylphenyl)methyl]-1,2,3,4-tetrahydroisoquinolin-6-yl}-2-methylpyridin-3-yl]acetic Acid], 4 nM.
